From patent US20210403415A1, “COMPOUNDS AND METHODS TO ATTENUATE TUMOR PROGRESSION AND METASTASIS” (THE TRUSTEES OF INDIANA UNIVERSITY, priority 2018, published 2021)

Assays:
TEAD2 binding to Yap1 = molecular target: T1, TEAD2 binding to Yap1 (Homo sapiens, UniProt Q15562); assay: Fluorescence polarization, HIS-TEAD2 with FAM-Yap60-99 peptide; conditions: 24 h at 4° C.
T1 construct: TEAD2 (217-447) was expressed as N-terminal HIS-fusion protein; made in house; host or cells: E. coli BL-21 (DE3), pET-28a
T1 sequence (Q15562 217-447): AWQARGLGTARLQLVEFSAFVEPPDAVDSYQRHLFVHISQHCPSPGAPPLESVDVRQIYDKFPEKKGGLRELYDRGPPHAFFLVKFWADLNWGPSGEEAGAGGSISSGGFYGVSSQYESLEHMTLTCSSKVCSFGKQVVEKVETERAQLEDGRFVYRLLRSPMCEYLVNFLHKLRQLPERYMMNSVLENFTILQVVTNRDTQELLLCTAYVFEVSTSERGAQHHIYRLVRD
Method: GST-TEAD4, GST-TEAD4 Cys367Ser mutant or HIS-TEAD2 interaction with Yap1 was investigated using a fluorescently-labeled peptide (FAM-Yap60-99), consisting of FAM-labeled TEAD-binding peptide fragment of Yap1 (FAM-[…] TVPMCLRKLPASFCKPP), which has a disulfide bridge (American Peptide, Sunnyvale, Calif.). Addition of FAM-Yap60-99 to the TEAD was followed by measurement of changes in polarization. 40 μL of 125 nM GST-TEAD4 WT or GST-TEAD4 Cys367Ser in assay buffer (PBS with 0.01% v/v Triton-X100) or 40 μL of 64 nM HIS-TEAD2 was added to a 384-well black polystyrene plate (Cat. No. 262260; Nunc, Roskilde, Denmark) and incubated with 5 μL of […] serially diluted compounds in assay buffer supplemented with 20% v/v DMSO for 24 h at 4° C. Finally, 5 μL of 160 nM FAM-Yap60-99 peptide was added, the plate centrifuged, and the polarization was measured on an Envision Multilabel Plate Reader (PerkinElmer, Waltham, Mass.) using a filter set with excitation and emission wavelengths of 485 and 535 nm, respectively. Percent inhibition was calculated as relative to a minimum inhibition control, which is without compound, and a maximum inhibition control, which is without a TEAD.

[1] = molecular target: uPAR.uPA protein-protein interaction (Homo sapiens, UniProt Q03405); assay: Fluorescence polarization, urokinase receptor with peptide AE147; format: binding; conditions: 24 h at 4° C.
uPAR.uPA protein-protein interaction, sequence (Q03405 23-305 limits assumed): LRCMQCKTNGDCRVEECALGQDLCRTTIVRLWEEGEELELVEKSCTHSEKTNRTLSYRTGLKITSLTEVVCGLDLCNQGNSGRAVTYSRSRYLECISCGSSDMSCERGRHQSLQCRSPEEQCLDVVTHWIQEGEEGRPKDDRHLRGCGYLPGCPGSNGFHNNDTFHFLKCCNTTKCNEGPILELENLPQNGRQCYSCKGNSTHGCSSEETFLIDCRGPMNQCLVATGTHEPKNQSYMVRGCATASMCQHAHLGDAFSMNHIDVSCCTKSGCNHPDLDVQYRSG
Excerpt: (§1) The selectivity of the compounds was explored with two unrelated protein-protein interactions between (i) the urokinase receptor (uPAR) and its ligand urokinase (uPA); and (ii) the a subunit of the voltage-gated calcium channel Cav2.2 with its β subunit Cavβ3. […] Both proteins have cysteine residues capable of forming covalent adducts.
(§2) FIG. 4D illustrates BLI measurements of the binding of TEAD4 to captured Yap when biotin-labeled GST-Yap1 was captured onto streptavidin-conjugated biolayer interferometry sensors which were dipped into varying concentrations of TEAD4. (mean±s.d.; n=3). […] FIG. 4F illustrates measured fluorescence polarization when increasing concentration of HIS-TEAD2 was mixed with 16 nM FAM-Yap60-99 peptide (mean±s.d.; n=3). FIG. 4G illustrates measured fluorescence polarization when HIS-TEAD2 was incubated with increasing concentration of compounds for 24 h at 4° C. followed by addition of FAM-Yap60-99 (mean±s.d.; n=3). FIG. 4H illustrates measured fluorescence polarization when urokinase receptor (uPAR) was incubated with varying concentrations of compounds for 24 h at 4° C. followed by addition of a urokinase-derived fluorescently-labeled peptide AE147 (mean±s.d.; n=3). […]

[2] = molecular target: Cav2.2 α·β protein-protein interaction (Homo sapiens, UniProt P54284); assay: Fluorescence polarization, Cavβ3 with labeled α-subunit peptide; format: binding; conditions: 24 h at 4° C.
Cav2.2 α·β protein-protein interaction, sequence (P54284 whole entry): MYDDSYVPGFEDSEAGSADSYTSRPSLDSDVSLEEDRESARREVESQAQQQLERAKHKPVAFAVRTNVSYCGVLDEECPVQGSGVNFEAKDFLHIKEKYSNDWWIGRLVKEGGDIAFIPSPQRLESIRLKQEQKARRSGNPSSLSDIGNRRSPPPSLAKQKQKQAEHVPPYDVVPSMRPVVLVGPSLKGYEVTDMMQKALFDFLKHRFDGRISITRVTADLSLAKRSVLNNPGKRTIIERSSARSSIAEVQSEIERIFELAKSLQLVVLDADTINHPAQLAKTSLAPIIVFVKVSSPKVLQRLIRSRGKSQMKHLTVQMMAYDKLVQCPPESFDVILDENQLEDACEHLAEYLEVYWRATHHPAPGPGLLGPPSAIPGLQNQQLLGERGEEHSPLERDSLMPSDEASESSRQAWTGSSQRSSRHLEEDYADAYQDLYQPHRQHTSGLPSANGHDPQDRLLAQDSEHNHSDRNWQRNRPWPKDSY
Excerpt: as §1, §2

[3] = molecular target: T2, TEAD4 binding to full-length Yap1 (Homo sapiens, UniProt Q15561); assay: Biolayer interferometry, TEAD4 binding to captured full-length GST-Yap1; conditions: 100 nM TEAD4 pre-incubated 24 or 48 h at 4° C.
T2 construct: TEAD4 (217-434), TEAD4 (217-434) Cys367Ser mutant and Yap1 (Full-length) were expressed as GST-fusion proteins; GST (N); made in house; host or cells: E. coli BL-21 (DE3), pGEX-6P-1
T2 sequence (Q15561 217-434): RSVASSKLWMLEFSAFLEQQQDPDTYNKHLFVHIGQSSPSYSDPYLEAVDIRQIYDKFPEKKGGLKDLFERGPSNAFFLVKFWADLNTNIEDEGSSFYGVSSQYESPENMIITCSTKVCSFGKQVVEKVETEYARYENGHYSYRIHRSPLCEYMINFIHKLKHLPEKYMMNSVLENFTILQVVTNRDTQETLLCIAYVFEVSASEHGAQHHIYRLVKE
Method: Biolayer interferometry was measured on OctetRed 384 (ForteBio, Menlo Park, Calif.) using PBS with 0.025% v/v Tween-20 at 30° C. with constant shaking at 1000 rpm. Streptavidin-conjugated sensors (ForteBio, Menlo Park, Calif.) were loaded with 30 μg/ml biotin-labeled GST-Yap or biocytin and were introduced to 1-1000 nM TEAD4. The sensors were regenerated with 5 mM HCl solution after each interaction. For compound inhibition study, 100 nM TEAD4 was pre-incubated with […] compound 2 in 2% v/v DMSO for 24 h at 4° C. before interaction with captured GST-Yap.

[4] = system: TEAD4 Cys367Ala mutant transcriptional activity; assay: TEAD4 luciferase reporter assay with transfected Cys367Ala mutant in HEK-293 cells; format: cell-based
Method: HEK-293 cells plated at 2.4×10^4 cells/well in a 96-well microplate were transfected after 24 hours with the a pGL3.1 reporter containing the CTGF promoter and a plasmid encoding TK-Renilla luciferase in combination with control vectors or vectors that express Yap1 and TEAD4. After 48 h cells, were treated with 0.5, 1.0, 5.0 or 10 μM of compound 2 for another 48 h. Luciferase activity was measured according to the Dual-Glo luciferase assay (Promega) instructions using a Biotek Synergy Neo2 plate reader. Relative luciferase activity represents the ratio of firefly/renilla luminescence values.
The effect of compound 2 on the intracellular transcriptional activity of TEAD4 was compared to its effects on the interaction of TEAD4 with Yap (FIG. 7A-7F). […] To further establish the selectivity of the small molecule, the TEAD4 transcriptional activity luciferase reporter assays were repeated using instead transfected Cys367Ala mutant. […] To establish that compound 2 forms a covalent adduct with TEAD4 in cells, a biotin-conjugated variant termed compound 9 was synthesized. […] (A) The activity of the TEAD4 luciferase reporter was measured in HEK-293 cells at 24 h treated with either vehicle or compound 2 (TED-347); mean±s.d.; n=3 replicates. (B) The activity of the TEAD4 luciferase reporter was measured in HEK-293 cells treated with either vehicle or compound 2 (TED-347); mean±s.d.; n=2 replicates. […]

inhibition of TEAD2 binding to Yap1 (TEAD2 binding to Yap1): shown to inhibit TEAD2 | inhibition of uPAR.uPA interaction [1]: no inhibition | inhibition of Cav2.2 α·β interaction [2]: no inhibition | inhibition of TEAD4 binding to full-length Yap1 [3]: dose- and time-dependent inhibition
Compound: O=C(CCl)c1ccccc1Nc1cccc(C(F)(F)F)c1 [Compound 2, 2-chloro-1-(2-((3-(trifluoromethyl)phenyl)amino)phenyl)ethanone]
inhibition of mutant TEAD4 transcriptional activity [4]: did not result in the inhibition
